Values quoted from earlier work in patent US20050186288A1, “Compositions and methods for the prophylaxis and treatment of aphthous ulcers and herpes simplex lesions” (Chiou Consulting Inc., priority 2002, published 2005).

Tested on: herpes infection (wound or ulcer)
Details: salt alone

| Substance | effect in treating herpes infection (wound or ulcer) |
| --- | --- |
| magnesium pentosan polysulfate | ineffective |
| zinc pentosan polysulfate | ineffective |
